Laboratory results from paper PMC7586386, “Discovery of Covalent Inhibitors Targeting the Transcriptional Enhanced Associate Domain Central Pocket” (Journal of Medicinal Chemistry, 2020).
pIC50: −log10 of the molar value.

Key:
hTEAD4 (nonacylated) = target: T1, hTEAD4 (nonacylated) (Homo sapiens, UniProt Q15561); test: Differential scanning fluorimetry; format: binding; settings: 20 μM protein, 80 μM inhibitor; value is a decrease
T1 construct: N-terminal His6-tagged hTEAD4^217–434 was subcloned; made in house; host or cells: Escherichia coli BL21-CodonPlus (DE3)-RIPL
T1 sequence (Q15561 217-434): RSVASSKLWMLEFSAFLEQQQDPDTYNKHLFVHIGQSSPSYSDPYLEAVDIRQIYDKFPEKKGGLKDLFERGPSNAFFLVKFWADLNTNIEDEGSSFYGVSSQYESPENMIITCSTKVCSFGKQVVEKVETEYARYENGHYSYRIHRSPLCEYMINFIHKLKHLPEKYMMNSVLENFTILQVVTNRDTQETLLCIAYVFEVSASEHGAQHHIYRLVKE
Experimental: Nonacylated hTEAD4 (20 μM) was incubated in the absence or presence of inhibitors (80 μM) at 25 °C for 10 min. Then, SYPRO orange (Sigma-Aldrich) at a final concentration of 5× was added and the mixture was heated at a ramp rate of 1 °C/min in a qPCR machine (Applied Biosystems). The derivative of the SYPRO orange fluorescent intensity is plotted as a function of temperature.

hTEAD4 = target: T2, hTEAD4 (Homo sapiens, UniProt Q15561); test: Cellular thermal shift assay (CETSA) in HCT116 cell lysates; format: cell-based; settings: 50 μM, 10 min, DMSO 49.8
T2 construct: Target engagement in HCT116 cell lysates was proven by means of a cellular thermal shift assay; endogenous in cells; host or cells: HCT116 cell lysate
T2 sequence (Q15561 whole entry): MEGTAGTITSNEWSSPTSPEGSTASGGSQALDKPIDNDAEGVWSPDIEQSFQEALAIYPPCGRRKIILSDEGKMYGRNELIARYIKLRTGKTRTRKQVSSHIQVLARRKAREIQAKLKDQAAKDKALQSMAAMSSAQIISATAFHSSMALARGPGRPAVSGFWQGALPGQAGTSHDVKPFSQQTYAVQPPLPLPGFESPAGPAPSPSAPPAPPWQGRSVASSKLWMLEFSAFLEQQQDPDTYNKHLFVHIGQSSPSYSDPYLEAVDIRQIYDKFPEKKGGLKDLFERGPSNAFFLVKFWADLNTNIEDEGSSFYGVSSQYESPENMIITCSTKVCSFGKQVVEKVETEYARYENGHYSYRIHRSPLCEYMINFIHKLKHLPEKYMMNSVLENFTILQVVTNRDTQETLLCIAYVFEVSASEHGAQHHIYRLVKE
Experimental: HCT116 cells were grown in Dulbecco’s modified Eagle’s medium (Sigma-Aldrich, #P04-03550) containing 10% fetal bovine serum, 1× NEAA (Sigma-Aldrich, # P08-32800) and 1 mM sodium pyruvate (Sigma-Aldrich, #S8636) until they reached 90% confluency. Cells were detached, transferred to two separate tubes, and washed three times with PBS. Then, 0.6 mL of PBS containing 0.04% NP-40 was added to each tube and cells were lysed by means of freeze and thaw. Lysates were centrifuged (Beckman Optima MAX-TL) at 100,000g, 4 °C for 25 min and protein concentration was determined using the DC Protein Assay Kit I (Bio-Rad, #5000111). Aliquots (1.5 mL) containing 1 mg/mL protein were stored at −80 °C until further usage.
Compound 19 (2.75 μL 10 mM stock, 50 μM) or DMSO (2.75 μL) was added to 550 μL of HCT116 lysates (1 mg/mL), samples were mixed and incubated for 10 min at room temperature. Treated and nontreated lysates were divided into ten aliquots, each 50 μL in PCR tubes. The aliquots were individually heated at different temperatures (Eppendorf Mastercycler ep Gradient S). […] To 16 μL of each supernatant was added 4 μL of 5× loading buffer and incubated for 5 min at 95 °C, before samples were analyzed by immunoblotting. […]
Images were analyzed with ImageJ (FUJI). […]

hTEAD2 = target: T3, hTEAD2 (Homo sapiens, UniProt Q15562); test: Thiol conjugation assay, TEAD homologues; format: binding; settings: read-out: TEAD2 IC50
T3 construct: N-terminal His6-tagged hTEAD4^217–447 was subcloned; His6 (N); made in house; host or cells: E. coli (as described for N-His hTEAD4)
T3 sequence (Q15562 217-447): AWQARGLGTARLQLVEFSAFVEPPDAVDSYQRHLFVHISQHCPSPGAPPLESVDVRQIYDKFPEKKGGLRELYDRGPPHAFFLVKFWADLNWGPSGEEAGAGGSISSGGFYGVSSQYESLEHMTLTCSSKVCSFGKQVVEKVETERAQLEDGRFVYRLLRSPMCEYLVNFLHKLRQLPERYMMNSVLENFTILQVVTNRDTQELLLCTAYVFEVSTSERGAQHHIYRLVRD
Experimental: (§1) To serially diluted solutions of the tested compounds in 5 μL of assay buffer [HEPES (25 mM) and NaCl (150 mM) pH 6.5], freshly prepared 5 μL of 0.45 μM protein solution was added and incubated at room temperature for 10 min, followed by addition of 5 μL of 0.45 μM CPM solution, giving a 15 μL final assay volume, 150 nM protein, and 150 nM CPM. The assay plate was shaken at room temperature for 1 h before measuring the fluorescence (Ex/Em: 380/470 nm). Compound 19 was used as an internal standard to determine 100% inhibition.

hTEAD3 = target: T4, hTEAD3 (Homo sapiens, UniProt Q99594); test: Thiol conjugation assay, TEAD homologues; format: binding; settings: read-out: TEAD3 IC50
T4 construct: N-terminal His6-tagged hTEAD4^216–434 was expressed; His6 (N); made in house
T4 sequence (Q99594 216-434): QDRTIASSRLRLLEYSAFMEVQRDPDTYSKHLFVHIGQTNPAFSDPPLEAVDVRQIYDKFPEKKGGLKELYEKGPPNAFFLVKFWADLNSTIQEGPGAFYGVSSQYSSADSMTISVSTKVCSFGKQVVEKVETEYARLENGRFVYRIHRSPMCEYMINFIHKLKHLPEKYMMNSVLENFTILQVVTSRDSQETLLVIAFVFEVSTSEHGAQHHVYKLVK
Experimental: as §1

[1] = Assay media stability (HPLC); format: physicochemical
Experimental: The compounds were incubated in MES (25 mM), pH 6.5 buffer or HEPES (25 mM) and NaCl (150 mM) pH 6.5 buffer for an hour at room temperature before injecting into a reverse-phase HPLC system (ThermoScientific_Ultimate 3000) equipped with a C18 column (2/50 Nucleodur C18 gravity 1.8 μm von Macherey-Nagel).

Ala mutant of mTEAD4 = target: T5, Ala mutant of mTEAD4 (Mus musculus, UniProt Q62296, C360A); test: Thiol conjugation assay with cysteine mutant; format: binding; settings: 10 μM compound
T5 construct: N-terminal His6- and MBP-tagged mTEAD4^209–427 with Cys360Ala mutation; made in house; host or cells: E. coli BL21-CodonPlus (DE3)-RIPL
T5 sequence (Q62296 209-427 C360A): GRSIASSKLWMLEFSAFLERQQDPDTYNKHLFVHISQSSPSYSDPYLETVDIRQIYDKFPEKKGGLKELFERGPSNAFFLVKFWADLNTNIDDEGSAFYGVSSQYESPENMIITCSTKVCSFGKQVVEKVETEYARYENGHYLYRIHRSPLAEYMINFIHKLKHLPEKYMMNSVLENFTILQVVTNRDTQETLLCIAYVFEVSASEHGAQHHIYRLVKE
Experimental: as §1

Ser mutant of mTEAD4 = target: T6, Ser mutant of mTEAD4 (Mus musculus, UniProt Q62296, C360S); test: Thiol conjugation assay with cysteine mutant; format: binding; settings: 10 μM compound
T6 construct: His (N); made in house
T6 sequence (Q62296 whole entry C360S): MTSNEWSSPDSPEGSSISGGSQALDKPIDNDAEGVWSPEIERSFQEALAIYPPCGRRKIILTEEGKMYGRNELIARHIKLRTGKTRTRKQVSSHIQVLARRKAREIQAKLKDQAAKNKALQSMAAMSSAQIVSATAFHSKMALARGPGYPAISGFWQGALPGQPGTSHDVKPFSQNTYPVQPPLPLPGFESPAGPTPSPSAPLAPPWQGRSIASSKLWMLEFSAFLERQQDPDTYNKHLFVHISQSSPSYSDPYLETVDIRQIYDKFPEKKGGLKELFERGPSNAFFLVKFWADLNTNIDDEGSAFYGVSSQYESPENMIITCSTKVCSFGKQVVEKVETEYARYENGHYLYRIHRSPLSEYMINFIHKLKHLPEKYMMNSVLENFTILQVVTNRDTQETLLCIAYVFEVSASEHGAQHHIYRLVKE
Experimental: as §1

mTEAD4 (nonacylated) = target: T7, mTEAD4 (nonacylated) (Mus musculus, UniProt Q62296); test: 1H–15N HSQC NMR; format: binding; settings: 0.5 mM compound, versus DMSO
T7 construct: made in house
T7 sequence (Q62296 210-427 limits assumed): as the sequence (Q15561 217-434) above, with V3I, Q19R, G35S, A48T, D67E, E91D, S96A, S142L counted along it
Experimental: The ^13C/^15N-labeled mTEAD4 was prepared following a protocol established earlier,[45] and the protein was deacylated as described above for hTEAD4. ^1H–^15N HSQC spectra in the presence of DMSO or the test compound (0.5 mM) were collected at 37 °C on a Bruker 600 MHz magnet equipped with a cryoprobe in 20 mM HEPES, pH 7.3 buffer containing 150 mM NaCl and 1 mM DTT. The spectra were processed and overlaid.

SMILES: O=c1cc(CO)oc(C(Nc2ccccc2)c2ccccc2)c1O (stereo not drawn) [Compound 19, 3-Hydroxy-6-(hydroxymethyl)-2-(phenyl(phenylamino)methyl)-4H-pyran-4-one]
- lowering of the melting point (Tm) (hTEAD4 (nonacylated)): 5 °C
- melting temperature of hTEAD4 (CETSA) (hTEAD4): 53.1 °C
- pIC50 (hTEAD2): 5.16
- pIC50 (hTEAD3): 5.34
- stability in assay medium ([1]; HEPES buffer (pH 6.5), 1 h): appearance of two small peaks was detected
- stability in assay medium ([1]; MES buffer, pH 6.5, 1 h, rt): stable
- inhibition of the increase in fluorescence signal (Ala mutant of mTEAD4): cannot inhibit
- inhibition of the increase in fluorescence signal (Ser mutant of mTEAD4): cannot inhibit
- effect on 1H–15N HSQC spectrum (mTEAD4 (nonacylated)): induced line broadening of several residues
